One block for each compound: values may come before it. Where a SMILES comes first, the peptide text is derived from it. The star is where a group is joined. X1 = O=C(O)[C@H]1CSC(c2nc3ccc(OCc4ccc(N*)cc4)cc3s2)=N1
What was measured:
[1] = Baseline uptake and biodistribution study in healthy mice; type: in vivo, mouse; settings: for baseline bioluminescence distribution: healthy Fluc+ BALB/c mice, D-luciferin 3 mg i.p., GBLI2 200 μg i.v. retro-orbital
[2] = system: untransduced activated CD8+ T cells; test: Cellular uptake assay; type: cell-based, mouse; settings: 5 μM, pre-incubation 30 min, 2.5 h at 4 or 37 °C, flow cytometry
CAR T cells = test: Cell viability assay; type: cell-based, mouse; settings: 5 μM – 100 μM, 37 °C, 3.5 h, absorbance at 490 nm
A20Luc+ cells = test: Cell viability assay; type: cell-based, mouse; settings: 5 μM – 100 μM, 37 °C, 3.5 h, absorbance at 490 nm
[3] = system: activated untransduced CD8+ T cells; test: Cell viability assay; type: cell-based, mouse; settings: 5 μM – 100 μM, 37 °C, 3.5 h, absorbance at 490 nm
[4] = DLS size distribution and zeta potential of nanoaggregates; type: physicochemical; settings: without gzmB cleavage

- baseline bioluminescence distribution [1]: mainly restricted to the abdomen
Compound: O=C([O-])[C@H]1CSC(c2nc3ccc(O)cc3s2)=N1.[K+] [D-luciferin, D-luciferin, potassium salt]

Compound: CCSSC[C@H](NC(=O)[C@H](CC(=O)O)NC(=O)[C@H](Cc1ccccc1)NC(=O)[C@H](CCC(=O)O)NC(=O)[C@@H](NC(C)=O)[C@@H](C)CC)C(=O)NCC(=O)N[C@@H](Cc1cn(CCCNC(=O)CCCCC[N+]2=C(/C=C/C=C/C=C3/N(C)c4ccc(S(=O)(=O)[O-])cc4C3(C)C)C(C)(C)c3cc(S(=O)(=O)O)ccc32)nn1)C(=O)NCc1ccc(C(=O)NCCCOc2cnc(C#N)nc2)cc1 [G-SNAT-Cy5]
- G-SNAT-Cy5 uptake at 4 °C versus 37 °C (MFI-Cy5 of viable cells) [2]: significantly attenuated
- cell viability (MTS) (CAR T cells): well tolerated
- cell viability (MTS) (A20Luc+ cells): well tolerated
- cell viability (MTS) [3]: well tolerated
- organ distribution of fluorescence after dissection ([1]; 5 nmol retro orbital, 1 h post i.v. injection, organ imaging, n = 3): mainly associated with the gastrointestinal tract

- baseline bioluminescence distribution [1]: highly concentrated in the spleen
Compound: CC[C@H](C)[C@H](NC(C)=O)C(=O)N[C@@H](CCC(=O)O)C(=O)N[C@@H](Cc1ccccc1)C(=O)N[C@@H](CC(=O)O)C(=O)Nc1ccc(COc2ccc3nc(C4=N[C@@H](C(=O)O)CS4)sc3c2)cc1 [GBLI2] (Ac-IEFD-X1)

Compound: (4S,10R,13S,16S,19S)-19-((2S,3S)-2-acetamido-3-methylpentanamido)-16-benzyl-13(carboxymethyl)-1-(4-((3-((2-cyanopyrimidin-5-yl)oxy)propyl)carbamoyl)phenyl)-10-((ethylsulfinothioyl)methyl)-3,6,9,12,15,18-hexaoxo-4-(prop-2-yn-1-yl)-2,5,8,11,14,17-hexaazadocosan-22-oic acid [G-SNAT]
- cell viability (MTS) (CAR T cells): well tolerated
- cell viability (MTS) (A20Luc+ cells): well tolerated
- DLS signal of G-SNAT uncleaved by gzmB [4]: No DLS signal could be detected
- cell viability (MTS) [3]: well tolerated
